Several values for one entry are separate records, joined by “and”; a condition that tells them apart may be missing. Equal values may be shown once.
Experiment: molar heat capacity at constant volume
Details: Vacuum adiabatic calorimetry

CC(C)O [propan-2-ol]
Fluid (supercritical or subcritical phases)
Details	molar heat capacity at constant volume
508.38 K, Mass density=274 kg/m3	423.79 J/K/mol
508.38 K, Mass density=281.9 kg/m3	417.78 J/K/mol
508.38 K, Mass density=288.99 kg/m3	404.68 J/K/mol
508.38 K, Mass density=293.3 kg/m3	398.73 J/K/mol
508.38 K, Mass density=343.1 kg/m3	178 J/K/mol
508.47 K, Mass density=234.3 kg/m3	474.81 J/K/mol
508.47 K, Mass density=255.8 kg/m3	454.98 J/K/mol
508.47 K, Mass density=266.3 kg/m3	444.04 J/K/mol
508.47 K, Mass density=274 kg/m3	437.73 J/K/mol
508.47 K, Mass density=281.9 kg/m3	430.04 J/K/mol
508.47 K, Mass density=288.99 kg/m3	411.05 J/K/mol
508.47 K, Mass density=293.3 kg/m3	405.04 J/K/mol
508.47 K, Mass density=324.5 kg/m3	207.09 J/K/mol
508.47 K, Mass density=329.2 kg/m3	191.7 J/K/mol
508.47 K, Mass density=343.1 kg/m3	175.96 J/K/mol
508.51 K, Mass density=234.3 kg/m3	487.37 J/K/mol and 279.44 J/K/mol
508.56 K, Mass density=234.3 kg/m3	267.78 J/K/mol
508.56 K, Mass density=255.8 kg/m3	471.14 J/K/mol
508.56 K, Mass density=266.3 kg/m3	462.31 J/K/mol
508.56 K, Mass density=274 kg/m3	451.49 J/K/mol
508.56 K, Mass density=281.9 kg/m3	440.92 J/K/mol
508.56 K, Mass density=288.99 kg/m3	425.11 J/K/mol
508.56 K, Mass density=293.3 kg/m3	419.1 J/K/mol
508.56 K, Mass density=324.5 kg/m3	206.31 J/K/mol
508.56 K, Mass density=343.1 kg/m3	177.52 J/K/mol
508.57 K, Mass density=329.2 kg/m3	186.9 J/K/mol
508.61 K, Mass density=293.3 kg/m3	422.11 J/K/mol
508.66 K, Mass density=234.3 kg/m3	258.83 J/K/mol
508.66 K, Mass density=255.8 kg/m3	495.78 J/K/mol
508.66 K, Mass density=266.3 kg/m3	484.85 J/K/mol
508.66 K, Mass density=274 kg/m3	472.11 J/K/mol
508.66 K, Mass density=281.9 kg/m3	456.18 J/K/mol
508.66 K, Mass density=288.99 kg/m3	439.35 J/K/mol
508.66 K, Mass density=293.3 kg/m3	428.48 J/K/mol
508.66 K, Mass density=324.5 kg/m3	201.38 J/K/mol
508.66 K, Mass density=343.1 kg/m3	178 J/K/mol
508.67 K, Mass density=274 kg/m3	481 J/K/mol
508.67 K, Mass density=329.2 kg/m3	188.1 J/K/mol
508.68 K, Mass density=281.9 kg/m3	461.83 J/K/mol
508.68 K, Mass density=293.3 kg/m3	434.49 J/K/mol and 253.6 J/K/mol
508.69 K, Mass density=255.8 kg/m3	507.8 J/K/mol
508.69 K, Mass density=274 kg/m3	491.94 J/K/mol
508.69 K, Mass density=288.99 kg/m3	447.41 J/K/mol and 264.72 J/K/mol
508.7 K, Mass density=255.8 kg/m3	524.03 J/K/mol and 301.68 J/K/mol
508.71 K, Mass density=266.3 kg/m3	520.48 J/K/mol
508.71 K, Mass density=281.9 kg/m3	469.58 J/K/mol and 277.46 J/K/mol
508.72 K, Mass density=266.3 kg/m3	572.71 J/K/mol and 337.73 J/K/mol
508.72 K, Mass density=274 kg/m3	515.62 J/K/mol and 304.08 J/K/mol
508.72 K, Mass density=293.3 kg/m3	245.07 J/K/mol
508.73 K, Mass density=255.8 kg/m3	293.08 J/K/mol
508.74 K, Mass density=281.9 kg/m3	270.61 J/K/mol
508.75 K, Mass density=234.3 kg/m3	245.01 J/K/mol
508.75 K, Mass density=266.3 kg/m3	306.97 J/K/mol
508.75 K, Mass density=288.99 kg/m3	247.77 J/K/mol
508.75 K, Mass density=324.5 kg/m3	199.15 J/K/mol
508.75 K, Mass density=343.1 kg/m3	175.96 J/K/mol
508.76 K, Mass density=329.2 kg/m3	186.9 J/K/mol
508.84 K, Mass density=234.3 kg/m3	238.7 J/K/mol
508.84 K, Mass density=255.8 kg/m3	268.32 J/K/mol
508.84 K, Mass density=266.3 kg/m3	281.06 J/K/mol
508.84 K, Mass density=274 kg/m3	273.13 J/K/mol
508.84 K, Mass density=281.9 kg/m3	250 J/K/mol
508.84 K, Mass density=288.99 kg/m3	237.68 J/K/mol
508.84 K, Mass density=293.3 kg/m3	231.97 J/K/mol
508.84 K, Mass density=324.5 kg/m3	196.75 J/K/mol
508.84 K, Mass density=343.1 kg/m3	176.44 J/K/mol
508.94 K, Mass density=234.3 kg/m3	228.96 J/K/mol
508.94 K, Mass density=255.8 kg/m3	253 J/K/mol
508.94 K, Mass density=266.3 kg/m3	267.3 J/K/mol
508.94 K, Mass density=274 kg/m3	261.53 J/K/mol
508.94 K, Mass density=281.9 kg/m3	233.77 J/K/mol
508.94 K, Mass density=288.99 kg/m3	223.91 J/K/mol
508.94 K, Mass density=293.3 kg/m3	219.23 J/K/mol
508.94 K, Mass density=324.5 kg/m3	197.11 J/K/mol
509.02 K, Mass density=255.8 kg/m3	241.34 J/K/mol
509.03 K, Mass density=266.3 kg/m3	252.46 J/K/mol
509.03 K, Mass density=274 kg/m3	247.59 J/K/mol
509.03 K, Mass density=281.9 kg/m3	225.96 J/K/mol
509.03 K, Mass density=288.99 kg/m3	217.96 J/K/mol
509.03 K, Mass density=293.3 kg/m3	209.73 J/K/mol
509.03 K, Mass density=324.5 kg/m3	192.42 J/K/mol
509.12 K, Mass density=234.3 kg/m3	213.22 J/K/mol
509.12 K, Mass density=266.3 kg/m3	242.96 J/K/mol
509.12 K, Mass density=274 kg/m3	238.4 J/K/mol
509.12 K, Mass density=281.9 kg/m3	217.24 J/K/mol

molar heat capacity at constant volume [J/K/mol]
Details	508.51 K	508.68 K	508.69 K	508.7 K	508.71 K	508.72 K
Gas	279.44	–	–	301.68	–	337.73
Liquid	–	253.6	264.72	–	277.46	304.08
